The values below are quoted from earlier work in US20050080252A1, “Process for preparing antiviral nucleoside derivatives” (Roche Palo Alto LLC, priority 2003, published 2005).

The conditions of data set [1]: unlike ribavirin.

In the case of `NC(=O)c1ncn([C@H]2O[C@@H](CO)[C@H](O)[C@@H]2O)n1` [levovirin, 1-(3S,4R-dihydroxy-5S-hydroxymethyl-tetrahydro-furan-2S-yl)-1H-[1,2,4]triazole-3 carboxylic acid amide], the direct antiviral activity entry in data set [1] is “does not have direct detectable antiviral activity”. The “immune response / antiviral Th1 cytokine expression” value in the data set with Th1 cytokine expression is reported as “stimulates immune responses by enhancing antiviral Th1 cytokine expression”.
